Test in all cases: isothermal titration calorimetry
Format in all cases: binding
For orientation: In ITC the heat of successive injections is recorded.

Experiment [1] addresses T1, AfUbiA (Archaeoglobus fulgidus, UniProt O28625, D198A).
T1 construct: gene AF_1648; full gene in modified pET vector, N-terminal His-tag removed with TEV protease, expressed in E. coli BL21(DE3), DM-solubilised for ITC or in lipidic cubic phase for crystals; likely monomer

The target of experiment [2] is T2, AfUbiA (Archaeoglobus fulgidus, UniProt O28625, D72A).
T2 construct: gene AF_1648; full gene in modified pET vector, N-terminal His-tag removed with TEV protease, expressed in E. coli BL21(DE3), DM-solubilised for ITC or in lipidic cubic phase for crystals; likely monomer
T2 sequence (O28625 entry or part of it D72A): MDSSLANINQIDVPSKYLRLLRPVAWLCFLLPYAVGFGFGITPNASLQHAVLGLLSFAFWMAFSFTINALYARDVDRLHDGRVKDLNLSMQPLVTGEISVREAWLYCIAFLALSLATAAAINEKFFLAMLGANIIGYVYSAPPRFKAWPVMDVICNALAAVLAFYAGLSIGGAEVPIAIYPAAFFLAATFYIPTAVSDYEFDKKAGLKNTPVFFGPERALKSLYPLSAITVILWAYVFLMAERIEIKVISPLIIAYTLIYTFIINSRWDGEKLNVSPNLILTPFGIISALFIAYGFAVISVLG
To be noted: 2 mM MgCl2, pH 7.5, 25 °C, 4 mM DM.

The target of experiment [3] is T3, AfUbiA (Archaeoglobus fulgidus, UniProt O28625, D202A).
T3 construct: gene AF_1648; full gene in modified pET vector, N-terminal His-tag removed with TEV protease, expressed in E. coli BL21(DE3), DM-solubilised for ITC or in lipidic cubic phase for crystals; likely monomer
T3 sequence (O28625 entry or part of it D202A): as the sequence (O28625 entry or part of it D72A) above, with A72D, D202A counted along it

For experiment [4], the target named is T4, AfUbiA (Archaeoglobus fulgidus, UniProt O28625).
T4 construct: gene AF_1648; full gene in modified pET vector, N-terminal His-tag removed with TEV protease, expressed in E. coli BL21(DE3), DM-solubilised for ITC or in lipidic cubic phase for crystals; likely monomer
T4 sequence (O28625 1-303): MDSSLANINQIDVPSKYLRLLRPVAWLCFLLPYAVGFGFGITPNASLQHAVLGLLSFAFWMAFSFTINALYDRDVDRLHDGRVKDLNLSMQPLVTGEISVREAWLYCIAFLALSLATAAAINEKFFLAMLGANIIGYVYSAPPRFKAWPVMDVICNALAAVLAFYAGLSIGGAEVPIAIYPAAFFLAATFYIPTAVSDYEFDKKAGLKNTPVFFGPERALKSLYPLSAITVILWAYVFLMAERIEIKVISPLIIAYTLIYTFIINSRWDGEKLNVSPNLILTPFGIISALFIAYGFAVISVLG

In experiment [5] the target is T5, AfUbiA (Archaeoglobus fulgidus, UniProt O28625, R22A).
T5 construct: gene AF_1648; full gene in modified pET vector, N-terminal His-tag removed with TEV protease, expressed in E. coli BL21(DE3), DM-solubilised for ITC or in lipidic cubic phase for crystals; likely monomer
T5 sequence (O28625 entry or part of it R22A): as the sequence (O28625 entry or part of it D72A) above, with R22A, A72D counted along it
To be noted: 2 mM MgCl2, pH 7.5, 25 °C, 4 mM DM.

The target in experiment [6] is T6, AfUbiA (Archaeoglobus fulgidus, UniProt O28625, N68A).
T6 construct: gene AF_1648; full gene in modified pET vector, N-terminal His-tag removed with TEV protease, expressed in E. coli BL21(DE3), DM-solubilised for ITC or in lipidic cubic phase for crystals; likely monomer
T6 sequence (O28625 entry or part of it N68A): as the sequence (O28625 entry or part of it D72A) above, with N68A, A72D counted along it
As to conditions: 2 mM MgCl2, pH 7.5, 25 °C, 4 mM DM.

Experiment [7] concerns the target T7, AfUbiA (Archaeoglobus fulgidus, UniProt O28625, K146A).
T7 construct: gene AF_1648; full gene in modified pET vector, N-terminal His-tag removed with TEV protease, expressed in E. coli BL21(DE3), DM-solubilised for ITC or in lipidic cubic phase for crystals; likely monomer
As to conditions: 2 mM MgCl2, pH 7.5, 25 °C, 4 mM DM.

SMILES strings stand for the structures.

T7 sequence (O28625 entry or part of it K146A): as the sequence (O28625 entry or part of it D72A) above, with A72D, K146A counted along it
T1 sequence (O28625 entry or part of it D198A): as the sequence (O28625 entry or part of it D72A) above, with A72D, D198A counted along it

Take `CC(C)=CCC/C(C)=C/COP(=O)(O)OP(=O)(O)O` [geranyl diphosphate]: the figures for the Kd on AfUbiA [1], at AfUbiA [3] and on AfUbiA [4] were 144 ± 13 µM, 67 ± 9 µM and 3.2 ± 0.1 µM, respectively. Also, the “no binding detected (N.D.)” value at AfUbiA [2], at AfUbiA [5], at AfUbiA [6] and on AfUbiA [7] was “Four of the mutations completely abolished GPP binding” in each case.

In general, Kd refers to the free concentration of one partner at which half of the binding sites on the other are occupied at equilibrium, for simple one-to-one binding. Low values mean higher affinity, high ones lower affinity.
